Assay results taken from ChEMBL document CHEMBL2321853, “Novel acylethanolamide derivatives that modulate body weight through enhancement of hypothalamic pro-opiomelanocortin (POMC) and/or decreased neuropeptide Y (NPY)” (J Med Chem, 2013).
The source made the active and inactive calls. The rule behind the calls is not given here.

Key:
[1] = test system: Mus musculus; experiment: Antiobesity activity in Sabra mouse assessed as reduction in body weight at 1 mg/kg, ip administered on day 0, 10, 11, 12, 24, 29 measured on day 39 relative to control; type: functional; parameters: scale not given: the % may be the effect or the level left; conditions: route intraperitoneal
[2] = test system: Mus musculus; experiment: Antiobesity activity in Sabra mouse assessed as reduction in body weight at 1 mg/kg, ip administered on day 0, 10, 11, 12, 24, 29 measured on day 36 relative to control; type: functional; parameters: scale not given: the % may be the effect or the level left; conditions: route intraperitoneal
[3] = test system: Mus musculus; experiment: Antiobesity activity in Sabra mouse assessed as reduction in body weight at 1 mg/kg, ip administered on day 0, 10, 11, 12, 24, 29 measured on day 29 relative to control; type: functional; parameters: scale not given: the % may be the effect or the level left; conditions: route intraperitoneal
[4] = test system: Mus musculus; experiment: Antiobesity activity in Sabra mouse assessed as reduction in body weight at 1 mg/kg, ip administered on day 0, 10, 11, 12, 24, 29 measured on day 33 relative to control; type: functional; parameters: scale not given: the % may be the effect or the level left; conditions: route intraperitoneal
[5] = test system: Mus musculus; experiment: Antiobesity activity in Sabra mouse assessed as reduction in body weight at 1 mg/kg, ip administered on day 0, 10, 11, 12, 24, 29 measured on day 26 relative to control; type: functional; parameters: scale not given: the % may be the effect or the level left; conditions: route intraperitoneal
[6] = test system: Mus musculus; experiment: Antiobesity activity in Sabra mouse assessed as reduction in body weight at 1 mg/kg, ip administered on day 0, 10, 11, 12, 24, 29 measured on day 24 relative to control; type: functional; parameters: scale not given: the % may be the effect or the level left; conditions: route intraperitoneal
[7] = test system: Mus musculus; experiment: Antiobesity activity in Sabra mouse assessed as reduction in body weight at 1 mg/kg, ip administered on day 0, 10, 11, 12, 24, 29 measured on day 22 relative to control; type: functional; parameters: scale not given: the % may be the effect or the level left; conditions: route intraperitoneal
[8] = test system: Mus musculus; experiment: Antiobesity activity in Sabra mouse assessed as reduction in body weight at 1 mg/kg, ip administered on day 0, 10, 11, 12, 24, 29 measured on day 19 relative to control; type: functional; parameters: scale not given: the % may be the effect or the level left; conditions: route intraperitoneal
[9] = test system: Mus musculus; experiment: Antiobesity activity in Sabra mouse assessed as reduction in body weight at 1 mg/kg, ip administered on day 0, 10, 11, 12, 24, 29 measured on day 12 relative to control; type: functional; parameters: scale not given: the % may be the effect or the level left; conditions: route intraperitoneal
[10] = test system: Mus musculus; experiment: Antiobesity activity in Sabra mouse assessed as change in body weight at 1 mg/kg, ip administered on day 8, 9, 10, 11, 14, 18, 24 and 32 measured on day 4 relative to control; type: functional; conditions: route intraperitoneal
[11] = test system: Mus musculus; experiment: Increase in motor activity Sabra mouse at 1 mg/kg, ip administered on day 8, 9, 10, 11, 14, 18, 24 and 32 measured on day 14 by open field test; type: functional, organism-based; parameters: dose 1 mg/kg
[12] = test system: Hypothalamus; experiment: Effect on FAAH gene expression in Sabra mouse hypothalamus assessed as change in mRNA level at 1 mg/kg, ip administered on day 8, 9, 10, 11, 14, 18, 24 and 32 by RT-PCR analysis relative to GAPDH; type: functional; conditions: route intraperitoneal
[13] = test system: Hypothalamus; experiment: Effect on CAMKK2 gene expression in Sabra mouse hypothalamus assessed as change in mRNA level at 1 mg/kg, ip administered on day 8, 9, 10, 11, 14, 18, 24 and 32 by RT-PCR analysis relative to GAPDH; type: functional; conditions: route intraperitoneal
[14] = test system: Hypothalamus; experiment: Effect on 5HT1A gene expression in Sabra mouse hypothalamus assessed as change in mRNA level at 1 mg/kg, ip administered on day 8, 9, 10, 11, 14, 18, 24 and 32 by RT-PCR analysis relative to GAPDH; type: functional; conditions: route intraperitoneal
[15] = test system: Hypothalamus; experiment: Effect on CART gene expression in Sabra mouse hypothalamus assessed as change in mRNA level at 1 mg/kg, ip administered on day 8, 9, 10, 11, 14, 18, 24 and 32 by RT-PCR analysis relative to GAPDH; type: functional; conditions: route intraperitoneal
[16] = test system: Hypothalamus; experiment: Effect on NPY gene expression in Sabra mouse hypothalamus assessed as change in mRNA level at 1 mg/kg, ip administered on day 8, 9, 10, 11, 14, 18, 24 and 32 by RT-PCR analysis relative to GAPDH; type: functional; conditions: route intraperitoneal
[17] = test system: Hypothalamus; experiment: Effect on POMC gene expression in Sabra mouse hypothalamus assessed as change in mRNA level at 1 mg/kg, ip administered on day 8, 9, 10, 11, 14, 18, 24 and 32 by RT-PCR analysis relative to GAPDH; type: functional; conditions: route intraperitoneal
[18] = biological target: Transient receptor potential cation channel subfamily V member 1 (Rattus norvegicus) (UniProt O35433); experiment: Displacement of [3H]resiniferatoxin from TRPV1 receptor in Wistar rat spinal cord at 10 uM relative to control
Chain of Transient receptor potential cation channel subfamily V member 1 (Rattus norvegicus) (O35433 whole entry): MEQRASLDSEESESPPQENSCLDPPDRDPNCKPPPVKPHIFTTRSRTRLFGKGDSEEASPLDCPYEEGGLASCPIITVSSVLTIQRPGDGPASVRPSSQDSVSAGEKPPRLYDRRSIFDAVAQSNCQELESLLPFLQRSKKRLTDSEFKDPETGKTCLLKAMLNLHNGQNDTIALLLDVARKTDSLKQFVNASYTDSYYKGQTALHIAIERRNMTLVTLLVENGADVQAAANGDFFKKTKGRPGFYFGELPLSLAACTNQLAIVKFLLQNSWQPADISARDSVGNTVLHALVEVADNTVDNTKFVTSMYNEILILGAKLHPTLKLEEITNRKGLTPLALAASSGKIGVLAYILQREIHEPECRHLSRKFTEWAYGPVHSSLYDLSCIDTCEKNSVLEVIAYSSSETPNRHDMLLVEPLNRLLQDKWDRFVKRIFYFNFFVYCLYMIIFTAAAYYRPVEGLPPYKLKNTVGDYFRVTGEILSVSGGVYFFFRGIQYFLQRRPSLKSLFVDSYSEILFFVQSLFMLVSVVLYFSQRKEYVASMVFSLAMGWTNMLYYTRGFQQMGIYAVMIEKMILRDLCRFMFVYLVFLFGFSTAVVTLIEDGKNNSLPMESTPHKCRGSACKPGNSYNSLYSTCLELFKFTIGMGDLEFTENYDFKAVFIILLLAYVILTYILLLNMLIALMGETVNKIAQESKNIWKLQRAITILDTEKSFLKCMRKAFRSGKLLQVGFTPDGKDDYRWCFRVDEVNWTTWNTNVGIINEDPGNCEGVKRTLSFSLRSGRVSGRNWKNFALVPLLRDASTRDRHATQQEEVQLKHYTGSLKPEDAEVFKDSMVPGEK

[19] = biological target: T1, Fatty-acid amide hydrolase 1 (Rattus norvegicus) (UniProt P97612); experiment: Inhibition of rat brain FAAH using [3H]anandamide as substrate at 10 uM preincubated for 15 mins before substrate addition relative to control
T1 sequence (whole entry): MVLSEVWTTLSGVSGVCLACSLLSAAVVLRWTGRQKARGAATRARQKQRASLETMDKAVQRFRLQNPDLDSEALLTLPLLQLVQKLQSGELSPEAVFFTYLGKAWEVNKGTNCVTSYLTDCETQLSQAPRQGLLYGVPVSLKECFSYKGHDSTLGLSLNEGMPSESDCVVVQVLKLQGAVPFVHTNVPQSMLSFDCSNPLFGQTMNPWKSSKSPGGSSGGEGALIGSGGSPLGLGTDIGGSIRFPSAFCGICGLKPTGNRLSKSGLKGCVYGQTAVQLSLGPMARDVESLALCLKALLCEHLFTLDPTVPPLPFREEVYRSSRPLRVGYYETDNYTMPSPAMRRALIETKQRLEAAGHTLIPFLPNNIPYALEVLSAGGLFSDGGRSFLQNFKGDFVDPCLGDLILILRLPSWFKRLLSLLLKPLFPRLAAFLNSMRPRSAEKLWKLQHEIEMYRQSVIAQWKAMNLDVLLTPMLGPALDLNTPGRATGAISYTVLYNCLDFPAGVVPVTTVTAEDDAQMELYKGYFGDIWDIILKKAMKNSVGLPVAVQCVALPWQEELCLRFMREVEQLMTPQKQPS

[20] = biological target: Cannabinoid receptor 2 (Homo sapiens) (UniProt P34972); experiment: Displacement of [3H]WIN-55,212-2 from human recombinant CB2 receptor expressed in CHO-K1 cells at 10 uM relative to control; type: cell-based
Chain of Cannabinoid receptor 2 (Homo sapiens) (P34972 whole entry): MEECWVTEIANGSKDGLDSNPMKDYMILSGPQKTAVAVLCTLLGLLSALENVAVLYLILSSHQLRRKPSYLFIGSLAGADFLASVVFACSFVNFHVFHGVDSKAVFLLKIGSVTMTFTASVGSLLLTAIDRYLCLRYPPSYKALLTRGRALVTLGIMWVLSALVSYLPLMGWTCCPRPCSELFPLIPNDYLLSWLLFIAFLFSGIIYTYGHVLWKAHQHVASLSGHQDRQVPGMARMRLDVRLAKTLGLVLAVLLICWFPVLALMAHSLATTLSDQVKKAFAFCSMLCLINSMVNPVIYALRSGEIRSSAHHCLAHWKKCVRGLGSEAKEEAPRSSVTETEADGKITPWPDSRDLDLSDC

[21] = biological target: Cannabinoid receptor 1 (Homo sapiens) (UniProt P21554); experiment: Displacement of [3H]SR141716A from human CB1 receptor expressed in rat Chem-1 cell membrane at 10 uM relative to control; type: cell membranes
Chain of Cannabinoid receptor 1 (Homo sapiens) (P21554 whole entry): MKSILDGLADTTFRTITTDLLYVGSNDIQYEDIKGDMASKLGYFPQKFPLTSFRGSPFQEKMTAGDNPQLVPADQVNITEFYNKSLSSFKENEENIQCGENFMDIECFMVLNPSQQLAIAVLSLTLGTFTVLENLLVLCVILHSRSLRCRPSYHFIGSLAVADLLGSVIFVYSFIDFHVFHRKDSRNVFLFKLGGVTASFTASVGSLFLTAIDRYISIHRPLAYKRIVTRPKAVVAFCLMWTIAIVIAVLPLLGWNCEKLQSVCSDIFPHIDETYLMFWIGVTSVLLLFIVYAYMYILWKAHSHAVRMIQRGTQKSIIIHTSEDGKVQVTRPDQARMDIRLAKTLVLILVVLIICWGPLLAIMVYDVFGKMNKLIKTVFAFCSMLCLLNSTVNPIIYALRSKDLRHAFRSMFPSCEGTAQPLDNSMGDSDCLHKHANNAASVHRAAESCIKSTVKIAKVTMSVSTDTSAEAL

[22] = biological target: T2, Peroxisome proliferator-activated receptor alpha (Homo sapiens) (UniProt Q07869); experiment: Binding affinity to human recombinant PPARalpha expressed in Escherichia coli at 10 uM for 16 hrs by spectrofluorimetric analysis relative to control
T2 sequence (whole entry): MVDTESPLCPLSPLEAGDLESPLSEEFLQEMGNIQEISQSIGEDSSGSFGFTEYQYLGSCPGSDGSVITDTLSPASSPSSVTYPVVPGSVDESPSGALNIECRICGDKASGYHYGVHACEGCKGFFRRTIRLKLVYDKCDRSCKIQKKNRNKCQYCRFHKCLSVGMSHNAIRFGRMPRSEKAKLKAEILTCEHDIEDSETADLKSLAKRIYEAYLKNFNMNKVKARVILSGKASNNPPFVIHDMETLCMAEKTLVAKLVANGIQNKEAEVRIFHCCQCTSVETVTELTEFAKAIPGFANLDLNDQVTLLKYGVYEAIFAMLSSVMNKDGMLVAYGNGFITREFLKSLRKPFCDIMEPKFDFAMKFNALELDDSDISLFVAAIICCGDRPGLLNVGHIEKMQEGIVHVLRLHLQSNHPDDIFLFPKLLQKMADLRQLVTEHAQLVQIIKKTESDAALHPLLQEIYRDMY

[23] = test system: Mus musculus; experiment: Antiobesity activity in Sabra mouse assessed as change in food consumption at 1 mg/kg, ip administered on day 8, 9, 10, 11, 14, 18, 24 and 32 measured after 6 weeks relative to control; type: functional; conditions: route intraperitoneal
[24] = test system: Mus musculus; experiment: Antiobesity activity in Sabra mouse assessed as change in food consumption at 1 mg/kg, ip administered on day 8, 9, 10, 11, 14, 18, 24 and 32 measured after 5 weeks relative to control; type: functional; conditions: route intraperitoneal
[25] = test system: Mus musculus; experiment: Antiobesity activity in Sabra mouse assessed as change in food consumption at 1 mg/kg, ip administered on day 8, 9, 10, 11, 14, 18, 24 and 32 measured after 3 weeks relative to control; type: functional; conditions: route intraperitoneal
[26] = test system: Mus musculus; experiment: Antiobesity activity in Sabra mouse assessed as change in food consumption at 1 mg/kg, ip administered on day 8, 9, 10, 11, 14, 18, 24 and 32 measured after 4 weeks relative to control; type: functional; conditions: route intraperitoneal
[27] = test system: Mus musculus; experiment: Antiobesity activity in Sabra mouse assessed as change in body weight at 1 mg/kg, ip administered on day 8, 9, 10, 11, 14, 18, 24 and 32 measured on day 35 relative to control; type: functional; conditions: route intraperitoneal
[28] = test system: Mus musculus; experiment: Antiobesity activity in Sabra mouse assessed as change in body weight at 1 mg/kg, ip administered on day 8, 9, 10, 11, 14, 18, 24 and 32 measured on day 39 relative to control; type: functional; conditions: route intraperitoneal
[29] = test system: Mus musculus; experiment: Antiobesity activity in Sabra mouse assessed as change in body weight at 1 mg/kg, ip administered on day 8, 9, 10, 11, 14, 18, 24 and 32 measured on day 30 relative to control; type: functional; conditions: route intraperitoneal
[30] = test system: Mus musculus; experiment: Antiobesity activity in Sabra mouse assessed as change in body weight at 1 mg/kg, ip administered on day 8, 9, 10, 11, 14, 18, 24 and 32 measured on day 25 relative to control; type: functional; conditions: route intraperitoneal
[31] = test system: Mus musculus; experiment: Antiobesity activity in Sabra mouse assessed as change in body weight at 1 mg/kg, ip administered on day 8, 9, 10, 11, 14, 18, 24 and 32 measured on day 14 relative to control; type: functional; conditions: route intraperitoneal
[32] = test system: Mus musculus; experiment: Antiobesity activity in Sabra mouse assessed as change in body weight at 1 mg/kg, ip administered on day 8, 9, 10, 11, 14, 18, 24 and 32 measured on day 21 relative to control; type: functional; conditions: route intraperitoneal
[33] = test system: Mus musculus; experiment: Antiobesity activity in Sabra mouse assessed as change in body weight at 1 mg/kg, ip administered on day 8, 9, 10, 11, 14, 18, 24 and 32 measured on day 9 relative to control; type: functional; conditions: route intraperitoneal
[34] = test system: Mus musculus; experiment: Antiobesity activity in Sabra mouse assessed as change in food consumption at 1 mg/kg, ip administered on day 8, 9, 10, 11, 14, 18, 24 and 32 measured after 2 weeks relative to control; type: functional; conditions: route intraperitoneal
[35] = biological target: Transient receptor potential cation channel subfamily V member 1 (Mus musculus) (UniProt Q704Y3); experiment: Displacement of [3H]resiniferatoxin from TRPV1 in mouse cortical slices
Chain of Transient receptor potential cation channel subfamily V member 1 (Mus musculus) (Q704Y3 whole entry): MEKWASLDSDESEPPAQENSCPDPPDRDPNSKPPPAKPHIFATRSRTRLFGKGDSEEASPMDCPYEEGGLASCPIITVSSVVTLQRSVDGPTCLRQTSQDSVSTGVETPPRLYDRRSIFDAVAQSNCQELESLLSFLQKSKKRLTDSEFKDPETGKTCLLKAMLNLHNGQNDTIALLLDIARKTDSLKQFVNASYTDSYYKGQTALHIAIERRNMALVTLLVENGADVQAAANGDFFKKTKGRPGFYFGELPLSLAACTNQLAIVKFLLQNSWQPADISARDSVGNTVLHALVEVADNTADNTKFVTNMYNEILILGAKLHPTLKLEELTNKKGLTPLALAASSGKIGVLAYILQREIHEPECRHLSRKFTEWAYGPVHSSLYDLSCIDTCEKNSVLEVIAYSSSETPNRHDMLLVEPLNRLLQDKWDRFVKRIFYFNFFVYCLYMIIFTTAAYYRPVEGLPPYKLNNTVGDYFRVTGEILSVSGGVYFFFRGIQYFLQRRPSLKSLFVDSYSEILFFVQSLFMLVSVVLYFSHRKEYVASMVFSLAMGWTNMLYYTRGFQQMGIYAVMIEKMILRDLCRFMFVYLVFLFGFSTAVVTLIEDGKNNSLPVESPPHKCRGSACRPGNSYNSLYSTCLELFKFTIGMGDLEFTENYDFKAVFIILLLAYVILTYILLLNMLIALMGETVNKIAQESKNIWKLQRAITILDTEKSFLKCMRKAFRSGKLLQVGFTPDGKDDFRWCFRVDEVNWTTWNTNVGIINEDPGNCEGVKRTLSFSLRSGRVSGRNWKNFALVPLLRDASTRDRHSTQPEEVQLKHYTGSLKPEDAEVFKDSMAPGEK

Compound | Activity [10] [%] | Activity [11] | Activity [12] [%] | Activity [13] [%] | Activity [14] [%] | Activity [15] [%] | Activity [16] [%] | Activity [17] [%] | inhibition [18] [%] | inhibition [19] [%] | inhibition [20] [%] | inhibition [21] [%] | Activity [22] [%] | Activity [23] [%] | Activity [24] [%] | Activity [25] [%] | Activity [26] [%] | Activity [27] [%] | Activity [28] [%] | Activity [29] [%] | other results
CCCCCCCC/C=C\CCCCCCCC(=O)N(C)CCO | – | – | – | – | – | – | – | – | – | – | – | – | – | – | – | – | – | – | – | – | Activity [1]: -3.67%; Activity [2]: -3.28%; Activity [3]: -1.44%; Activity [4]: -0.3%; Activity [5]: -0.5%; Activity [6]: 0.03%; Activity [7]: -0.48%; Activity [8]: -0.48%; Activity [9]: -0.61%
CCCCCCCC/C=C\CCCCCCCC(=O)N[C@@H](CO)C(C)C | 0.4 | Active | -28 | -2 | 17 | 44 | 8 | 31 | 3 | 8 | 5 | 36 | 0 | 77.3 | 80.6 | 78.1 | 81.8 | -6 | -6.7 | -4.7 | Activity [30]: -3.3%; Activity [31]: -3.1%; Activity [32]: -1.7%; Activity [33]: -0.8%; Activity [34]: 79.4%
CCCCCCCCCCCCCCCCCC(=O)NCCO | – | – | – | – | – | – | – | – | – | – | – | – | – | – | – | – | – | – | – | – | Activity [35]: inactive
CCCCCCCCCCCCCCCCCC(=O)N[C@H](CO)C(C)C | 2.1 | inactive | -26 | -14 | -16 | 2 | -39 | 43 | -9 | 0 | 6 | 6 | 0 | 82.5 | 100.5 | 93.8 | 85.7 | -7.8 | -6 | -5.8 | Activity [30]: -5.3%; Activity [31]: -1.4%; Activity [32]: -1.8%; Activity [33]: 0.9%; Activity [34]: 96%
